Assay results reported in ChEMBL document CHEMBL1201862, “PubChem BioAssay data set” (2004).
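Interpolation was linear, between the two tested concentrations surrounding the appropriate level; five concentrations were tested over 48 hours in 96-well plates. Abbreviation: GI50, concentration required for 50% inhibition of growth.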 Activity calls are given as the source filed them. No stated cut-off is given here; in the data, active = GI50 up to about 1.1 µM and inactive = higher.

Tests used:
Test in all cases: inhibition of tumour cell growth, NCI panel, 48 h
UO-31 = tested on: UO-31
HT-29 = tested on: HT-29
OVCAR-3 = tested on: OVCAR-3
NCI/ADR-RES = tested on: NCI/ADR-RES
NCI-H460 = tested on: NCI-H460
CAKI-1 = tested on: CAKI-1
SK-MEL-5 = tested on: SK-MEL-5
SK-MEL-2 = tested on: SK-MEL-2
SK-MEL-28 = tested on: SK-MEL-28
SF-268 = tested on: SF-268
LOX IMVI = tested on: LOX IMVI
K562 = tested on: K562
MDA-N = tested on: MDA-N
HCT-116 = tested on: HCT-116
ACHN = tested on: ACHN
COLO 205 = tested on: COLO 205
SF-295 = tested on: SF-295
T47D = tested on: T47D
Hs-578T = tested on: Hs-578T
CCRF-CEM = tested on: CCRF-CEM
EKVX = tested on: EKVX
SW-620 = tested on: SW-620
NCI-H226 = tested on: NCI-H226
PC-3 = tested on: PC-3
SK-OV-3 = tested on: SK-OV-3
A549 = tested on: A549
MCF7 = tested on: MCF7
U-251 = tested on: U-251
MDA-MB-231 = tested on: MDA-MB-231
OVCAR-8 = tested on: OVCAR-8
RXF 393 = tested on: RXF 393
M14 = tested on: M14
SR = tested on: SR
BT-549 = tested on: BT-549
KM12 = tested on: KM12
NCI-H23 = tested on: NCI-H23
HCC 2998 = tested on: HCC 2998
NCI-H522 = tested on: NCI-H522
UACC-257 = tested on: UACC-257
OVCAR-4 = tested on: OVCAR-4
IGROV-1 = tested on: IGROV-1
Malme-3M = tested on: Malme-3M
SNB-75 = tested on: SNB-75
TK-10 = tested on: TK-10
SNB-19 = tested on: SNB-19
RPMI-8226 = tested on: RPMI-8226
OVCAR-5 = tested on: OVCAR-5
MDA-MB-435 = tested on: MDA-MB-435
SN12C = tested on: SN12C
HOP-92 = tested on: HOP-92
UACC-62 = tested on: UACC-62
DU-145 = tested on: DU-145
HOP-62 = tested on: HOP-62
SF-539 = tested on: SF-539
MOLT-4 = tested on: MOLT-4

Measured: GI50

C/C(=N\Oc1cc(Cl)ncn1)c1ccccn1
inactive: UO-31 52 µM | HT-29 95.7 µM | OVCAR-3 20.2 µM | NCI/ADR-RES > 100 µM | NCI-H460 25.3 µM | CAKI-1 18.7 µM | SK-MEL-5 28.1 µM | SK-MEL-2 14.1 µM | SK-MEL-28 39.5 µM | SF-268 58.2 µM | LOX IMVI 42.3 µM | K562 56.5 µM | MDA-N > 100 µM | HCT-116 > 100 µM | ACHN 90.6 µM | COLO 205 > 100 µM | SF-295 63 µM | T47D 30.2 µM | Hs-578T 32.8 µM | CCRF-CEM 34.4 µM | EKVX 38.5 µM | SW-620 84.7 µM | NCI-H226 > 100 µM | PC-3 45.3 µM | SK-OV-3 92.5 µM | A549 86.7 µM | MCF7 55.3 µM | U-251 60.5 µM | MDA-MB-231 19.8 µM | OVCAR-8 > 100 µM | RXF 393 4 µM | M14 18.4 µM | SR 31.7 µM | BT-549 85.3 µM | KM12 > 100 µM | NCI-H23 34.1 µM | HCC 2998 17.4 µM | NCI-H522 17.9 µM | UACC-257 99.8 µM | OVCAR-4 > 100 µM | IGROV-1 21.9 µM | Malme-3M 61.9 µM | SNB-75 > 100 µM | TK-10 59 µM | SNB-19 > 100 µM | RPMI-8226 > 100 µM | OVCAR-5 37.8 µM | MDA-MB-435 47.4 µM | SN12C > 100 µM | HOP-92 20.5 µM | UACC-62 47.5 µM | DU-145 48.9 µM | HOP-62 38.1 µM | SF-539 29.6 µM | MOLT-4 39.2 µM
